Laboratory results as given in patent US9809562B2, “NAT10 modulators for treating or preventing laminopathies, aging and cancer” (CAMBRIDGE ENTERPRISE LIMITED, priority 2014, dated 2017).
Where a name gives a salt, the structure may show the parent alone.

Tests used:
[1] = A431 proliferation assay (IncuCyte ZOOM); assay type: cell-based, human
Method: A431 cells expressing a low level of Lamin A protein (see FIG. 2) were plated at low density and treated with the indicated concentration of Compound 2. Cell growth was monitored automatically over time using an IncuCyte ZOOM®.

[2] = Stability on exposure to light or air; assay type: physicochemical
[3] = target: T1, NAT10 purified from HEK293 cells (Homo sapiens, UniProt Q9H0A0); test: Lysine acetyltransferase (KAT) assay with tubulin substrate; assay type: biochemical; settings: compounds at 50 μM
T1 construct: made in house; host or cells: HEK293 (transient transfection, anti-FLAG immunopurification, elution with triple-Flag peptide)
T1 sequence (Q9H0A0 1-1025): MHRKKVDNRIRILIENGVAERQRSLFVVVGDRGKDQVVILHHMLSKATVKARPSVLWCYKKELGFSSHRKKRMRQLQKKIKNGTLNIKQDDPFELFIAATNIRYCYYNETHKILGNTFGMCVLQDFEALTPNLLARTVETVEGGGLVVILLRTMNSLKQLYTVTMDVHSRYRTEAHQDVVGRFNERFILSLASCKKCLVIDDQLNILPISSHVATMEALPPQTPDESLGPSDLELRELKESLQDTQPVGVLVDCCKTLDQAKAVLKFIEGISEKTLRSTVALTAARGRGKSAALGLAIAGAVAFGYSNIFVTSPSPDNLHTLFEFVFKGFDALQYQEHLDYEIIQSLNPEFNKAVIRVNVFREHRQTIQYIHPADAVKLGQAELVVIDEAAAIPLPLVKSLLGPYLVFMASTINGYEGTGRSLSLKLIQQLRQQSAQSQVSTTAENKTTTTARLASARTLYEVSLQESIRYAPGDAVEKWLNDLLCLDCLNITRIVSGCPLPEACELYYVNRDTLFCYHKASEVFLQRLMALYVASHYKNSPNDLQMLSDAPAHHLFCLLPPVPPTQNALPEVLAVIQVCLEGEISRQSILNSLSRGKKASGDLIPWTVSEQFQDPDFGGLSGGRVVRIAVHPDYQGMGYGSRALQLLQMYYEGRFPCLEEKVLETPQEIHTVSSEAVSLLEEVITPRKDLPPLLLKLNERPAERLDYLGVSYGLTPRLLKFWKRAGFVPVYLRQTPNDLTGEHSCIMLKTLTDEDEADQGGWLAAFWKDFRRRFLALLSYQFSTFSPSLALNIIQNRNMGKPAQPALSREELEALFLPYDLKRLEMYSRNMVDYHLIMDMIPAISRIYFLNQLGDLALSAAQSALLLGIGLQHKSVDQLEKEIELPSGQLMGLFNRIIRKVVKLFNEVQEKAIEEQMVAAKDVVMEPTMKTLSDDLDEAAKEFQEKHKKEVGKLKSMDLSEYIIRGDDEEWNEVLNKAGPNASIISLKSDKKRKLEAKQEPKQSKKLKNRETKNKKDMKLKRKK
Method: HEK293 cells were transiently transfected with NAT10 constructs and harvested after 48 hours in PBS. Cells were lysed for 5 minutes at room temperature in IP lysis buffer (20 mM Tris pH 7.5, 40 mM NaCl, 2 mM MgCl2, 0.5% NP-40) freshly supplemented with 50 U/ml benzonase and EDTA-free protease inhibitor cocktail (Roche). After this initial lysis step, NaCl concentration was adjusted to 450 mM and samples were incubated at 4° C. with rotation. Lysates were clarified by centrifugation (13,200 rpm, 20 minutes at 4° C.), and after recovery NaCl concentration was equilibrated to 150 mM. Lysates were used for immunoprecipitation reaction in IP buffer (25 mM Tris pH 7.5, 150 mM NaCl, 1.5 mM DTT, 10% glycerol, 0.5% NP-40) supplemented with protease inhibitors. Target proteins were captured with anti-FLAG antibody (M2, Sigma-Aldrich) coupled to protein A/G-Dynabeads (Life Sciences). Complexes were washed with IP buffer containing incrementally increasing amounts of NaCl (250 mM, 500 mM, and 1M). Following this, the immuno-complexes were washed in TBS containing gradually decreasing amounts on NaCl (1M, 500 mM, 250 mM, and 150 mM). At this point, elution was carried out using excess triple-Flag peptide (Sigma Aldrich). Eluted proteins were loaded on a gel and the purification was verified by Silver Staining (SilverQuest kit, Life Sciences). […]

[4] = system: siLMNA cells and HGPS cells; test: Microtubules regrowth assay; assay type: cell-based, human; settings: t=15 minutes after cold depolymerization, 5 to 10 μM Remodelin 16 hours
Method: 48 hours after siRNA transfections, microtubules were depolymerized by cold treatment at 4° C. for 1 hour in cells pre-treated or not with 5 to 10 μM Remodelin for 16 hours. Cold medium was replaced by pre-warmed medium and cells were incubated at 37° C. for 5 or 15 minutes to allow microtubules nucleation and anchorage respectively. Cells were fixed in PFA and stained with anti α-Tubulin antibody as described in the immunofluorescence procedure.

[5] = system: cancer cell lines with low or high Lamin A/C expression; test: Population doubling time of cancer cell lines; assay type: cell-based, human
Method: FIG. 15: Compound 2 inhibits the proliferation, migration and invasion of cancer cells with low Lamin A/C expression. […] C) Quantification of transwell migration assays and matrigel invasion assays from the indicated low expressing cancer cell lines after treatment with 50 μM of compound 2.

Lmna^G609G/G609G mice = test: Tubulin acetylation levels in mice; assay type: in vivo, mouse; settings: treated Lmna^G609G/G609G mice
Method: As Tubulin is a direct substrate of NAT10, Tubulin acetylation levels in cells derived from HGPS patients (left and bottom panel of FIG. 27) were assessed as well as in Lmna^G609G/G609G mice (right panel of FIG. 27).

[6] = system: tissues from Lmna^G609G/G609G mice; test: γH2AX relative to total H2AX in mouse tissues (western blot); assay type: in vivo
Method: Tissues from wild type mice or Lmna^G609G/G609G mice treated with Compound 2 were harvested and proteins were extracted and loaded on a western blot which is shown in FIG. 26. Lmna^G609G/G609G mice indeed show progerin expression (readily detectable mainly in the Lung tissues), confirming their genotype. DNA damage was assessed by the DNA double strand break marker γH2AX that was quantified using a Licor Odyssey Imaging system.

LMNA KO U2OS cells = test: Global protein translation by HPG incorporation (FACS), LMNA KO; assay type: cell-based, human; settings: 24 h treatment, 1 h HPG
Method: U2OS cells expressing wild type or KO LMNA were treated with Compound 2 for 24 h and incubated for 1 h with the clickable methionine analogue HPG to measure global protein translation. HPG was then clicked with an Alexa fluor 488 and global fluorescence intensity was quantified by FACS on 10 000 cells.

Compound	reduction of A431 proliferation ([1]; 10 μM)	stability [2]	NAT10 WT KAT activity towards tubulin [3]	anchorage of microtubules to centrosomes [4]	proliferation of cells expressing high levels of lamin A/C ([5]; up to 50 μM)	A431 cell growth ([1]; indicated concentrations, growth monitored over time)	tubulin acetylation levels (Lmna^G609G/G609G mice)	DNA damage (γH2AX relative to total H2AX) ([6]; heart and lung, treated vs untreated Lmna^G609G/G609G mice)	DNA damage (γH2AX relative to total H2AX) ([6]; liver extracts)	population doubling time, sensitivity by Lamin A level ([5]; 50 μM for 1 week)	global protein translation (HPG fluorescence intensity) (LMNA KO U2OS cells)
N#Cc1ccc(-c2csc(NN=C3CCCC3)n2)cc1 [Compound 1, 4-(4-Cyanophenyl)-2-(2-cyclopentylidenehydrazinyl)thiazole]	about 50%	most potent and stable analogue of the series	abolished NAT10 WT KAT activity	anchorage of microtubules to centrosomes was clearly affected	not affected by up to 50 μM Remodelin	–	–	–	–	–	–
C#CCN(N=C1CCCC1)c1nc(-c2ccc(Cl)cc2)cs1 [Compound 3, 4-(4-Chlorophenyl)-2-(2-cyclopentylidene-1-(prop-2-yn-1-yl)hydrazinyl)thiazole]	–	–	abolished NAT10 WT KAT activity	–	–	–	–	–	–	–	–
Clc1ccc(-c2csc(NN=C3CCCC3)n2)cc1 [Compound 2, 4-(4-Chlorophenyl)-2-(2-cyclopentylidenehydrazinyl)thiazole Hydrochloride Salt]	–	rapidly degraded upon exposure to light or air	–	–	–	inhibited in a dose-dependent manner	decrease of tubulin acetylation levels	clear decrease of DNA damage	No effect	cells expressing low levels of Lamin A are more sensitive to the molecule	strong reduction of global protein translation
